Measurements published in patent publication US7700832B2 (priority 2006, dated 2010).
Entries after “also recorded” stand apart in the source; their conditions may differ. Like-named read-outs stand apart in the source and are kept apart here.

What was measured:
Format in all cases: cell-based
[1] = test system: Fusarium verticillioides (FVE)
[2] = test system: Fusarium graminearum (FGR); conditions: for antifungal activity against FGR: polypeptide, standard plate assay, 4,000 spores per mL, ¼× potato dextrose broth, 28° C., 24 to 48 hours, scored with inverted microscope
[3] = test system: Colletotrichum graminicola (CGR); conditions: polypeptide, standard plate assay, 4,000 spores per mL, ¼× Czapec-Dox V8, 28° C., 24 to 48 hours, scored with inverted microscope
Diplodia maydis (DMA) = conditions: polypeptide, standard plate assay, 6,000 spores per mL, ¼× potato dextrose broth, 28° C., 24 to 48 hours, scored with inverted microscope

Substance	antifungal activity against FVE [1]	antifungal activity against FGR (HPLC fraction screen) ([2]; dried HPLC fractions, 4,000 spores/mL in ¼× potato dextrose broth, 27° C. for 24 hours)	antifungal activity against FGR [2]	antifungal activity against FGR ([2]; listed as SEQ ID NO: 1)	antifungal activity against CGR [3]	antifungal activity against CGR ([3]; listed as SEQ ID NO: 1)	antifungal activity against DMA (Diplodia maydis (DMA))	antifungal activity against DMA (Diplodia maydis (DMA); listed as SEQ ID NO: 1)	antifungal activity against FVE (HPLC fraction screen) [1]
SEQ ID NO:1: mature antifungal polypeptide LB-09812, 33 amino acids, from Penicillium glandicola fermentation broth; also expressed in E. coli and HPLC-purified (ALHNSCSHPRCFNHAHCLTYSHCHVCSSRKRCL; PEPTIDE (1)...(33) Predicted mature LB-09812 peptide; listed as Penicillium glandicola)	exhibited antifungal activity; also recorded: display antifungal activity	found to have activity	display antifungal activity	exhibited antifungal activity	display antifungal activity	exhibited antifungal activity	display antifungal activity	exhibited antifungal activity	–
SEQ ID NO:3: mature antifungal polypeptide LB-12922 isolated from Penicillium citreonigrum fermentation broth (LSCYPSCMQNYCSHPRCFLHATCLSYSHCHVCGTRKVCL; PEPTIDE (1)...(39) Predicted mature LB-12922 peptide; listed as Penicillium citreonigrum)	display antifungal activity	–	display antifungal activity	–	display antifungal activity	–	display antifungal activity	–	found to have activity
